Data taken from patent US20050004005A1, “Methods of treating diseases responsive to Induction of Apoptosis” (priority 2003, published 2005).

How the values were obtained:
caspase cascade [1] = test: Activation of the caspase cascade and induction of apoptosis in cells (earlier Cai et al. applications); format: cell-based; settings: typically
caspase cascade [2] = settings: as described in Ser. No. 10/164,705 and 60/433,953; cited from earlier work
GST-Tip47 = molecular target: T1, GST-Tip47 (Homo sapiens, UniProt O60664, I56V/V275A); test: Binding of tritiated compound to GST-Tip47 immobilized on anti-GST Protein A Sepharose, scintillation counting; settings: 2 μM compound, 1 hour room temperature, TBS pH 8.0, FIG. 1A
T1 construct: Full-length Tip47 cDNA was cloned into the pGEX-4T-1; made in house; host or cells: E. coli BL-21
T1 sequence (O60664 1-434 I56V/V275A): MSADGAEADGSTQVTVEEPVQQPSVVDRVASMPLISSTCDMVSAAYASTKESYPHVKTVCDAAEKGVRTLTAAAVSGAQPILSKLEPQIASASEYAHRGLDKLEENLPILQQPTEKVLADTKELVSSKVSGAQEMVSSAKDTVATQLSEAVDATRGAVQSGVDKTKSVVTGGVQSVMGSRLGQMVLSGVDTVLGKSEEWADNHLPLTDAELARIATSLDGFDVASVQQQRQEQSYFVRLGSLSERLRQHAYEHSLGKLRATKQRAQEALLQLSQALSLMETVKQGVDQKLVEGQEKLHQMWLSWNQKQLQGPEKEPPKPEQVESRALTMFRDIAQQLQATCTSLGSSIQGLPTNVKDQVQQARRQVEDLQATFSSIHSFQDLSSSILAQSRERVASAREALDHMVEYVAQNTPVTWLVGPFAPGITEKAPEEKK
Method: 2 μM 3-(3,5-ditritium-4-azidophenyl)-5-(3-chloro-thiophen-2-yl)-[1,2,4]-oxadiazole (Example 3) was added to either Protein A Sepharose only, Protein A Sepharose plus anti-GST antibody, anti-GST/Protein A Sepharose plus GST only, or anti-GST/Protein A Sepharose plus GST-Tip47. After TBS washes, eluate was counted on a scintillation counter.
Full-length Tip47 cDNA was cloned into the pGEX-4T-1, a glutathione S-transferase (GST) gene fusion system (Amersham, Piscataway, N.J.) using standard methods. Briefly, PCR primers to the 5′ and 3′ region of the gene were designed to contain restriction sites that allowed for the in frame cloning of Tip47 into the pGEX-4T-1 vector. Subsequent to sequence verification, the pGEX-Tip47 construct was transformed into the E.Coli BL-21 strain.
In order to perform binding studies on Tip47, GST-Tip47 was immobilized on Sepharose. To begin, 10 μg of anti-GST antibody (cat. # sc-459, rabbit polyclonal, Santa Cruz Biotechnology, Santa Cruz, Calif.) was incubated with 20 μl of protein A Sepharose (Zymed, South San Francisco, Calif.), in TBS (pH 8.0), total volume 200 μl, for 1 hour at room temperature. Beads were washed 3 times with TBS (pH 8.0). […] Eluates were added to 5 ml of scintillation cocktail and counted using ^3H protocol. […]

Tip47 = molecular target: T2, Tip47 (Homo sapiens, UniProt O60664, I56V/V275A); test: Photolabeling of T47D cytosol, immunoprecipitation with anti-Tip47, SDS-PAGE and autoradiography; format: binding; settings: T47D cytosol labeled with 20 nM compound, UV 254 nm, anti-fibronectin as control, FIG. 1B
T2 construct: This supernatant is T47D cytosol; endogenous in cells; host or cells: T47D breast cancer cells
T2 sequence (O60664 1-434 I56V/V275A): T1 sequence (O60664 1-434 I56V/V275A)
Method: T47D cytosol was labeled with 20 nM 3-(3,5-ditritium-4-azidophenyl)-5-(3-chloro-thiophen-2-yl)-[1,2,4]-oxadiazole (Example 3) and immunoprecipitated with anti-fibronectin (as a control) or anti-Tip47. The immunoprecipitated complex was subject to SDS-PAGE and autoradiography.
For immunoprecipitations, T47D cells were first washed in PBS and then resuspended in CLB Buffer (10 mM HEPES, 10 mM NaCl, 1 mM KH2PO4, 5 mM NaHCO3, 1 mM CaCl2, 0.5 mM MgCl2, 5 mM EDTA) plus 0.1% protease inhibitor cocktail (Sigma, St. Louis, Mo.). Cells were allowed to swell in 5 minutes at room temperature and then were homogenized in a tight fitting Dounce homogenizer with 50 strokes. Lysate was spun 2,200×g, 5 minutes, at 4° C. The supernatant was then spun at 100,000×g, 40 minutes at 4° C. This resulting supernatant was called T47D cytosol. Protein concentration determined by the D/C Protein Assay (Bio-Rad, Hercules, Calif.).
20 riM 3-(3,5-ditritium-4-azidophenyl)-5-(3-chloro-thiophen-2-yl)-[1,2,4]-oxadiazole (Example 3) (stock is 20 μM, 1 mCi/ml, 50 Ci/mmol) was added to 1 mg T47D cytosol in 1 ml CLB Buffer and incubated, rocking, for 30 minutes at room temperature. Lysates were then exposed to a Short Wave UV Source (254 nm) for 10 minutes.
Labeled lysates were pre-cleared with 50 μl solution of Protein A Sepharose (Zymed, South San Francisco, Calif.) for 2 hours at 4° C. […]

Tail Interacting Protein = molecular target: T3, Tail Interacting Protein (Homo sapiens, UniProt O60664, I56V/V275A); test: Photo-affinity radiolabeling of T47D cytosol, two-dimensional gel and autoradiography; format: binding; settings: 200 nM compound, 300 μg T47D cytosol, UV 254 nm 10 minutes
T3 construct: This supernatant is T47D cytosol; endogenous in cells; host or cells: T47D breast cancer cells
T3 sequence (O60664 1-434 I56V/V275A): T1 sequence (O60664 1-434 I56V/V275A)
Method: Isolation of Tail Interacting Protein from Cell Extracts by Photo-affinity Radiolabeling: T47D breast cancer cell line was grown in RPMI 1640 medium containing 25 mM Hepes and L-glutamine (Gibco) supplemented with 10% FCS and penicillin/streptomycin. 8×10^6 T47D cells in 25 mL medium were plated on a 100 mm dish and grown overnight in RPMI medium supplemented with 10% FCS and penicillin/streptomycin. Cells were scraped with Cell lifter (Fisher) into a conical tube and centrifuged for 5 minutes at 450×g. Cells were washed one time with 1 mL PBS (1,160×g for 3 minutes) and then resuspended in 0.25 mL Cell Lysis Buffer (CLB) (10 mM HEPES, pH 7.2, 10 mM NaCl, 1 mM KH2PO4, 5 mM NaHCO3, 1 mM CaCl2, 0.5 mM MgCl2, 5 mM EDTA) plus 0.1% Protease Inhibitor Cocktail (Sigma). Cells were allowed to swell 5 minutes at room temperature and then homogenized using Dounce homogenizer and Type A pestle (tight) 50 times on ice. After centrifugation at 2,200×g, for 5 minutes, 4° C., the supernatant was spun at 108,000×g, for 40 minutes at 4° C. This supernatant is T47D cytosol. Protein concentration is determined by BioRad DC assay.
300 μg T47D cytosol in 100 μL CLB was added in the well of a 96-well plate. […]

cyclin D1 = test: Realtime PCR of mRNA levels in compound-treated T47D cells; format: cell-based; settings: 5 μM, 18 h, versus DMSO, FIG. 2
Method: FIG. 2: The effect of 5-(3-chlorothiophen-2-yl)-3-(5-chloro-pyridin-2-yl)-[1,2,4]-oxadiazole on mRNA levels of genes of interest. T47D cells were treated for 18 h with 5 μM of 5-(3-chlorothiophen-2-yl)-3-(5-chloro-pyridin-2-yl)-[1,2,4]-oxadiazole or DMSO and total RNA was then isolated. mRNA levels of TGFbeta, p21, cyclin D1, IGF2R, and IGFBP3 were quantitated using realtime PCR as fold change of treatment/control.
For cDNA synthesis and quantitative PCR, total RNA was extracted using the TRIzol reagent (Invitrogen Corporation, Carlsbad, Calif.) according to the manufacturer's instructions. Total RNA was quantitated, denatured, and electrophoresed in an agarose-formaidehyde gei to determine integrity of total RNA. 2 μg of total RNA was then used to make cDNA by reverse transcription using the Retroscript cDNA synthesis kit (Ambion Austin, Tex.) according to the manufacturer's instructions. Quantitative PCR was done by Sybrgreen incorporation using the Quantitect kit (Qiagen, Valencia, Calif.) on the LightCycler (Roche Molecular Biochemicals, Mannheim, Germany) using standard conditions. Data was normalized against the housekeeping gene, cyclophilin. The cells transfected with cyclophilin as a control was normalized against glyceraldehyde phosphate dehydrogenase (GAPD).

In the case of [N-]=[N+]=Nc1ccc(-c2noc(-c3sccc3Cl)n2)cc1 [3-(4-Azidophenyl)-5-(3-chloro-thiophen-2-yl)-[1,2,4]-oxadiazole], the “Time to induction of apoptosis in cells upon binding to TIPRAIP” value (caspase cascade [1]) is given as 24 to 48 h and the “Activation of the caspase cascade and of apoptosis” value (caspase cascade [2]) is given as “potent and highly efficacious activators of the caspase cascade”.

With [3H]c1cc(-c2noc(-c3sccc3Cl)n2)cc([3H])c1N=[N+]=[N-] [Example 3, 3-(3,5 -Ditritium-4-azidophenyl)-5-(3-chloro-thiophen-2-yl)-[1,2,4]-oxadiazole] the “Binding to GST-Tip47 immobilized on α-GST-Protein A-Sepharose” value (GST-Tip47) was “binding to GST-Tip47”, the “Binding to immunoprecipitated Tip47 from cell lysates” value (Tip47) was “binding to immunoprecipitated Tip47” and the “Radiolabeled protein on 2-D gel autoradiography” value (Tail Interacting Protein) was “single radiolabeled spot”.

In the case of Clc1ccc(-c2noc(-c3sccc3Cl)n2)nc1 [compound A, 5-(3-chlorothiophen-2-yl)-3-(5-chloro-pyridin-2-yl)-[1,2,4]-oxadiazole], the “Gene expression profile: cyclin D1 mRNA level” value (cyclin D1) is reported as “down regulation of cyclin D1”.
